This note sets out measurements from patent publication US20240279205A1, “NOVEL BENZIMIDAZOLE DERIVATIVE” (Carna Biosciences, Inc., priority 2020, published 2024).

The subject of experiment [1] is STING activation (IFN-β production in THP-1 cells). The experiment can be described thus: Human IFN-β production inhibition test by cGAMP stimulation in THP-1 cells. On the set-up: IFN-β bioinhibitory activity: scale not given here. The class given is cell-based. Conditions: 2'3'-cGAMP transfection, 18 hours, IFN-β ELISA; for IC50: Homo sapiens, read-out: IFN-β bioinhibitory activity. Summed up: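 PMA-primed (100 nM, overnight) THP-1 cells pretreated 1 h with compound at 0.001 to 1 μM (0.1% DMSO), then transfected with 0.12 μg/well 2′3′-cGAMP and cultured 18 hours. Supernatant IFN-β measured by ELISA; IC50 by regression against log concentration, normalised to cGAMP-only (100%) and unstimulated (0%) controls.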
(An ELISA detects its analyte on a solid surface through an enzyme-linked reagent.)

The next experiment deals with T1, human STING (hSTING) (Homo sapiens, UniProt Q86WV6).
T1 construct: host or cells: HEK-Blue ISG cells (HEK293-derived SEAP reporter line)
T1 sequence (Q86WV6 whole entry H232R): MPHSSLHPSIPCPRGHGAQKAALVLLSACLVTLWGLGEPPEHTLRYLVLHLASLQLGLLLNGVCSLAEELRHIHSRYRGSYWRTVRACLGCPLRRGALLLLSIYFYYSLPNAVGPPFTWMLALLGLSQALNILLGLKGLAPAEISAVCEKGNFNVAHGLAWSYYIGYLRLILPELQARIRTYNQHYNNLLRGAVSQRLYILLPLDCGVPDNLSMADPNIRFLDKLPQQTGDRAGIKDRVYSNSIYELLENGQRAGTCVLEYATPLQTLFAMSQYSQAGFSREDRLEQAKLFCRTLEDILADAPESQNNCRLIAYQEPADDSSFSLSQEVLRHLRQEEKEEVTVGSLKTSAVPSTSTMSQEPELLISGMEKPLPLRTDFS
The experiment can be described thus: Inhibition test of intracellular human STING (hSTING) pathway using SEAP reporter cells (HEK-Blue ISG), stimulation with Compound 3. The class given is cell-based. Further details: hSTING inhibitory activity: scale not given here. Conditions: Compound 3 10 nM stimulation, 21 hours. Summed up: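 HEK-Blue ISG cells with IRF-inducible SEAP reporter, pretreated 1 h with compound (final 0.1 to 10 μM), then stimulated with Compound 3 (final 10 nM) for 21 h at 37° C. Supernatant SEAP measured colorimetrically; IC50 from log-concentration regression, normalized to stimulated (100%) and unstimulated (0%) controls.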

Turning to `CN(C)n1c(Nc2c[nH]c3ccc(Cl)cc23)nc2cc(C(F)(F)F)ccc21` [Embodiment 216, N2-(5-Chloro-1H-indol-3-yl)-N1,N1-dimethyl-5-(trifluoromethyl)-1H-benzo[d]imidazole-1,2-diamine], in experiment [1], the IFN-β bioinhibitory activity entry is “* * *”. For the same compound, the hSTING inhibitory activity result on human STING (hSTING) is reported as “* * *”.
For the compound `CCn1c(Nc2c[nH]c3ccc(Cl)cc23)nc2cc(C(F)(F)F)ccc21` [Embodiment 217, N-(5-Chloro-1H-indol-3-yl)-1-ethyl-5-(trifluoromethyl)-1H-benzo[d]imidazol-2-amine], the IFN-β bioinhibitory activity entry in experiment [1] is reported as “* *”. Also, the hSTING inhibitory activity result at human STING (hSTING) is “* * *”.
Consider `CC(C)n1c(Nc2c[nH]c3ccc(Cl)cc23)nc2cc(C(F)(F)F)ccc21` [Embodiment 218, N-(5-Chloro-1H-indol-3-yl)-1-isopropyl-5-(trifluoromethyl)-1H-benzo[d]imidazol-2-amine], for which the IFN-β bioinhibitory activity result in experiment [1] is “* *”. Also, the hSTING inhibitory activity result at human STING (hSTING) is “* * *”.
On the same counts, the results for `[2H]C([2H])([2H])n1c(Nc2c[nH]c3ccc(Cl)cc23)nc2cc(C(F)(F)F)ccc21` [Embodiment 221, N-(5-Chloro-1H-indol-3-yl)-1-(methyl-d3)-5-(trifluoromethyl)-1H-benzo[d]imidazol-2-mine] are “* *” and “* * *”.
On the same counts, the results for `COCCn1c(Nc2c[nH]c3ccc(Cl)cc23)nc2cc(C(F)(F)F)ccc21` [Embodiment 222, N-(5-Chloro-1H-indol-3-yl)-1-(2-methoxyethyl)-5-(trifluoromethyl)-1H-benzo[d]imidazol-2-amine] are “* *” and “* * *”.
Regarding `OCCn1c(Nc2c[nH]c3ccc(Cl)cc23)nc2cc(C(F)(F)F)ccc21` [Embodiment 223, 2-{2-[(5-chloro-1H-indol-3-yl)amino]-5-(trifluoromethyl)-1H-benzo[d]imidazol-1-yl}ethanol], in experiment [1], the IFN-β bioinhibitory activity result is listed as “* *”. Moreover, the hSTING inhibitory activity entry on human STING (hSTING) is “* * *”.
For the compound `FC(F)(F)c1ccc2c(c1)nc(Nc1c[nH]c3ccc(Br)cc13)n2C1CC1` [Embodiment 224, N-(5-bromo-1H-indol-3-yl)-1-cyclopropyl-5-(trifluoromethyl)-1H-benzo[d]imidazol-2-amine], the IFN-β bioinhibitory activity entry in experiment [1] is “* *”. Moreover, the hSTING inhibitory activity result on human STING (hSTING) is given as “* * *”.
Consider `Cn1c(Nc2c[nH]c3ccc(Cl)cc23)nc2cc(C(F)(F)F)cc(F)c21` [Embodiment 225, N-(5-Chloro-1H-indol-3-yl)-7-fluoro-1-methyl-5-(trifluoromethyl)-1H-benzo[d]imidazol-2-amine], for which the IFN-β bioinhibitory activity result in experiment [1] is listed as “* *”. For the same compound, on human STING (hSTING), the hSTING inhibitory activity entry is recorded as “* * *”.
For `FC(F)(F)c1ccc2c(c1)nc(Nc1c[nH]c3ccc(Cl)cc13)n2C1COC1` [Embodiment 226, N-(5-Chloro-1H-indol-3-yl)-1-(oxetan-3-yl)-5-(trifluoromethyl)-1H-benzo[d]imidazol-2-amine] the same measures were “* *” and “* *”.
With `CC#CCn1c(Nc2c[nH]c3ccc(Cl)cc23)nc2cc(C(F)(F)F)ccc21` [Embodiment 228, 1-(But-2-yn-1-yl)-N-(5-rolo-1H-indol-3-yl)-5-(trifluoromethyl)-1H-benzo[d]imidazol-2-amine], in experiment [1], the IFN-β bioinhibitory activity result is “* *”. Besides, at human STING (hSTING), the hSTING inhibitory activity result is reported as “* *”.
Take `FC(F)(F)Oc1ccc2c(c1)nc(Nc1c[nH]c3ccc(Cl)cc13)n2C1CC1` [Embodiment 231, N-(5-Chloro-1H-indol-3-yl)-1-cyclopropyl-5-(trifluoromethoxy)-1H-benzo[d]imidazol-2-amine]: the IFN-β bioinhibitory activity result in experiment [1] is “* *”. On human STING (hSTING), the hSTING inhibitory activity entry is “* * *”.
For `FC(F)(F)c1ccc2c(c1)nc(Nc1c[nH]c3ccc(I)cc13)n2C1CC1` [Embodiment 232, 1-Cyclopropyl-N-(5-iodo-1H-indol-3-yl)-5-(trifluoromethyl)-1H-benzo[d]imidazol-2-amine], the IFN-β bioinhibitory activity result in experiment [1] is listed as “* *”. For the same compound, the hSTING inhibitory activity entry at human STING (hSTING) is recorded as “* *”.
`Fc1cc(C(F)(F)F)cc2nc(Nc3c[nH]c4ccc(Cl)cc34)n(C3CC3)c12` [Embodiment 233, N-(5-Chloro-1H-indol-3-yl)-1-cyclopropyl-7-fluoro-5-(trifluoromethyl)-1H-benzo[d]imidazol-2-amine]: the IFN-β bioinhibitory activity entry in experiment [1] was “* *”. Besides, the hSTING inhibitory activity result at human STING (hSTING) is given as “* * *”.
Turning to `OCCn1c(Nc2c[nH]c3ccc(Cl)cc23)nc2cc(C(F)(F)F)cc(F)c21` [Embodiment 236, 2-{2-[(5-chloro-1H-indol-3-yl)amino]-7-fluoro-5-(trifluoromethyl)-1H-benzo[d]imidazol-1-yl}ethane-1-oar], in experiment [1], the IFN-β bioinhibitory activity entry is “* *”. Also, the hSTING inhibitory activity entry on human STING (hSTING) is listed as “* * *”.
`CN(C)n1c(Nc2c[nH]c3ccc(Cl)cc23)nc2cc(C(F)(F)F)cc(F)c21` [Embodiment 237, N2-(5-Chloro-1H-indol-3-yl)-7-fluoro-N1,N1-dimethyl-5-(trifluoromethyl)-1H-benzo[d] imidazole-1,2-diamine]: in experiment [1], the IFN-β bioinhibitory activity result is on record as “* *”. Besides, the hSTING inhibitory activity entry at human STING (hSTING) is listed as “* * *”.
With `CCCn1c(Nc2c[nH]c3ccc(Cl)cc23)nc2cc(C(F)(F)F)cc(F)c21` [Embodiment 238, N-(5-Chloro-1H-indol-3-yl)-7-fluoro-1-propyl-5-(trifluoromethyl)-1H-benzo[d]imidazol-2-amine], the IFN-β bioinhibitory activity result in experiment [1] is reported as “* *”. Also, at human STING (hSTING), the hSTING inhibitory activity entry is “* * *”.
On to `CCn1c(Nc2c[nH]c3ccc(Cl)cc23)nc2cc(C(F)(F)F)cc(F)c21` [Embodiment 240], for which, in experiment [1], the IFN-β bioinhibitory activity entry is reported as “* *”. Further, at human STING (hSTING), the hSTING inhibitory activity entry is “* * *”.
On the same counts, the results for `C#CCn1c(Nc2c[nH]c3ccc(Cl)cc23)nc2cc(C(F)(F)F)cc(F)c21` [Embodiment 241, N-(5-Chloro-1H-indol-3-yl)-7-fluoro-1-(prop-2-yn-1-yl)-5-(trifluoromethyl)-1H-benzo[d] imidazole-2-amine] are “* *” and “* * *”.
Take `CC(C)n1c(Nc2c[nH]c3ccc(Cl)cc23)nc2cc(C(F)(F)F)cc(F)c21` [Embodiment 242, N-(5-Chloro-1H-indol-3-yl)-7-fluoro-1-isopropyl-5-(trifluoromethyl)-1H-benzo[d]imidazol-2-amine]: the IFN-β bioinhibitory activity entry in experiment [1] is on record as “* *”. Also, the hSTING inhibitory activity entry on human STING (hSTING) is “* * *”.
On to `CCCn1c(Nc2c[nH]c3ccc(Cl)cc23)nc2cc(OC(F)(F)F)ccc21` [Embodiment 244, N-(5-Chloro-1H-indol-3-yl)-1-propyl-5-(trifluoromethoxy)-1H-benzo [d]imidazol-2-amine], for which the IFN-β bioinhibitory activity entry in experiment [1] is reported as “* *”. In addition, on human STING (hSTING), the hSTING inhibitory activity entry is recorded as “* * *”.
In the case of `OCCn1c(Nc2c[nH]c3ccc(Cl)cc23)nc2cc(OC(F)(F)F)ccc21` [Embodiment 245, 2-{2-[(5-Chloro-1H-indol-3-yl)amino]-5-(trifluoromethoxy)-1H-benzo[d]imidazol-1-yl}ethan-1-oar], the IC50 in experiment [1] fell in the range of 0.1 to 1 µM. Besides, the hSTING inhibitory activity result on human STING (hSTING) was “* *”.
For the compound `Cn1c(Nc2c[nH]c3ccc(Cl)cc23)nc2cc(OC(F)(F)F)ccc21` [Embodiment 246, N-(5-Chloro-1H-indol-3-yl)-1-methyl-5-(trifluoromethoxy)-1H-benzo[d]imidazol-2-amine], the IFN-β bioinhibitory activity result in experiment [1] is given as “* * *”. In addition, the hSTING inhibitory activity entry at human STING (hSTING) is reported as “* * *”.
For `FC(F)(F)c1ccc2c(c1)nc(Nc1c[nH]c3ccc(Cl)cc13)n2N1CCCC1` [Embodiment 247, N-(5-Chloro-1H-indol-3-yl)-1-(pyrrolidin-1-yl)-5-(trifluoromethyl)-1H-benzo[d]imidazol-2-amine], in experiment [1], the IC50 was in the range of 0.1 to 1 µM. Besides, on human STING (hSTING), the hSTING inhibitory activity entry is given as “* *”.
Consider `Cc1cc(C(F)(F)F)cc2nc(Nc3c[nH]c4ccc(Cl)cc34)n(C)c12` [Embodiment 248, N-(5-Chloro-1H-indol-3-yl)-1,7-dimethyl-5-(trifluoromethyl)-1H-benzo[d]imidazol-2-amine], for which, in experiment [1], the IFN-β bioinhibitory activity entry is “* *”. In addition, the hSTING inhibitory activity result on human STING (hSTING) was “* * *”.
Regarding `Cn1c(Nc2c[nH]c3ccc(Cl)cc23)nc2cc(C(F)(F)F)cc(Cl)c21` [Embodiment 249, 7-Chloro-N-(5-chloro-1H-indol-3-yl)-1-methyl-5-(trifluoromethyl)-1 H-benzo[d]imidazol-2-amine], in experiment [1], the IFN-β bioinhibitory activity result was “* *”. Besides, the hSTING inhibitory activity result at human STING (hSTING) was “* * *”.
For `Cn1c(Nc2c[nH]c3ccc(Cl)cc23)nc2cc(C(F)(F)F)c(Cl)cc21` [Embodiment 250, 6-Chloro-N-(5-chloro-1H-indol-3-yl)-1-methyl-5-(trifluoromethyl)-1H-benzo[d]imidazol-2-amine] the same measures were “* *” and “* *”.
As for `CCn1c(Nc2c[nH]c3ccc(Cl)cc23)nc2cc(OC(F)(F)F)ccc21` [Embodiment 251, N-(5-Chloro-1H-indol-3-yl)-1-ethyl-5-(trifluoromethoxy)-1H-benzo [d]imidazol-2-amine], the IFN-β bioinhibitory activity result in experiment [1] is on record as “* *”. In addition, the hSTING inhibitory activity result on human STING (hSTING) is on record as “* * *”.
